Experimental data published in patent US11696537B2, “Composition and method for increasing the content of glucosinolates in adult plants of the genus brassica” (CONSEJO SUPERIOR DE INVESTIGACIONES CIENTÍFICAS (CSIC), priority 2018, dated 2023).

What was measured:
[1] = test system: Brassica oleracea var. Italica Parthenon; conditions: in vivo
Description: (§1) In a growth chamber, seeds of the broccoli cultivar (Brassica oleracea var. Italica) Parthenon which grew for 30 days were germinated. Subsequently, they were allowed to grow in a greenhouse for 75 days until the inflorescences reached commercial size. In this case, foliar application of the treatments indicated below was carried out by spraying between 100 and 150 ml per plant: one at the time the flower bud appears and the following applications 5 and 10 days, respectively, after the first application.

[2] = test system: Brassica oleracea var. Italica Parthenon; assay: Greenhouse test: concentration of glucosinolates on leaves and inflorescences after foliar application; format: in vivo
Description: as §1
Control composition: consisting of a solution containing 0.2% by volume of ethanol and 99.8% by volume of water.
Surfactant composition 1 (Triton X-100): consisting of a solution containing 0.1% by volume of Triton X-100 surfactant and 99.9% by volume of water.
Surfactant composition 2 (MPP): consisting of a solution containing 0.1% by volume of the modified polysiloxane polyether surfactant and 99.9% by volume of water.
Elicitor composition (MeJA): consisting of a solution containing 0.0022% by volume of MeJA, 0.2% by volume of ethanol and 99.7978% by volume of water.
Composition 2 (MeJA+Triton X-100): consisting of a solution containing 0.0022% by volume of MeJA, 0.2% by volume of ethanol, 0.1% by volume of Triton X-100 and 99.70% by volume of water.
Composition 1 (MeJA+MPP): A solution was prepared containing 0.0022% by volume of MeJA (for a final concentration of 100 micromolar in the composition), 0.2% by volume of ethanol, 0.1% by volume of polysiloxane polyether and 99.7968% by volume of water.
Subsequently, the plants were harvested and the leaves and inflorescences were frozen in liquid nitrogen and immediately lyophilised to prevent the compounds of interest from degrading until it was time to determine the glucosinolates and metabolites of interest.
The analyses were carried out on the leaf and inflorescence at the time of collecting the commercial size. The method used for extracting glucosinolates was based on the method developed by the research group and currently in the public domain: Dominguez-Perles et al. (2010) Journal of Food Science 75, 383-392. The quantitative analysis was carried out by HPLC-DAD. The lyophilised and ground samples (100 mg) were extracted with 1 ml of 70% MeOH in a hot bath at 70° C. for 30 minutes, stirring every 5 minutes in a vortex, to optimise the extraction. The reaction was then stopped in an ice bath and the samples were centrifuged to precipitate the insoluble material, for 15 minutes, at 10,000 g and at 4° C. The supernatant was collected and the methanol was removed on a rotary evaporator with a thermostatically controlled bath at 38° C. The dry residue obtained was redissolved in ultra-pure water and filtered (00.22 μm of PVDF) for the subsequent analysis thereof.
Each sample (20 μl) was analysed in high-performance liquid chromatography (HPLC) equipped with a pump for binary eluent partitioning, an inline degasser, a photodiode detector autosampler (DAD). The compounds were separated in a C18 column measuring 250×4 mm and with a 0.4 um pore diameter, in reversed phase liquid chromatography (RP-HPLC) mode. The glucosinolates were identified using the methodology already described by the research group and publicly available for multipurpose analysis of intact glucosinolates (Martinez-Sánchez et al. 2006 Postharvest Biol. Technol. 42, 86-97; Dominguez-Perles et al. (2010) Journal of Food Sci. 75, 383-392), based on the retention times of the respective analytical peaks, the maximum absorption spectra thereof in the UV-Vis range and the comparison with commercially available external standards, sinigrin for aliphatic glucosinolates and glucobrassicin for indolic glucosinolates (Baenas et al. (2012) J. Agric. Food Chemistry, 60, 11409-11420). The detection was carried out at 227 nm and the concentration of glucosinolates was expressed in μmol/g of plant tissue dry weight. […]

[3] = Drop dispersion; format: physicochemical; conditions: under binoculars (1.6×), FIG. 3
Description: The drop dispersion of Compositions 1 and 2 and that of elicitor Composition (MeJA) was determined under binoculars (1.6×) (FIG. 3).

Compound | % of Commercial heads [1] [%] | Total GLS ([2]; INFLORESCENCE) [mg/g DW] | mg GBS/g DW ([2]; INFLORESCENCE) [mg/g DW] | mg GRA/g DW ([2]; INFLORESCENCE) [mg/g DW] | mg NGB/g DW ([2]; INFLORESCENCE) [mg/g DW] | Total GLS ([2]; LEAF) [mg/g DW] | mg GBS/g DW ([2]; LEAF) [mg/g DW] | mg GRA/g DW ([2]; LEAF) [mg/g DW] | mg NGB/g DW ([2]; LEAF) [mg/g DW] | drop dispersion [3]
Triton X-100 | 81.1 | – | – | – | – | – | – | – | – | –
CC/C=C\CC1C(=O)CCC1CC(=O)OC (centres unmarked) [MeJA, methyl jasmonate] | 100 | 4.97 | 2.05 | 1.70 | 1.22 | 1.75 | 0.71 | 0.35 | 0.69 | no dispersion is observed
